# Reference: the NIST ThermoML archive (doi:10.1021/je500050p)
# ± gives the expanded uncertainty stated by the source.
# What was measured:
# [1] = 101.33 kPa, Liquid, Vibrating tube method
# [2] = activity coefficient (dimensionless); of the first substance listed, at infinite dilution; xn = mol fraction of the nth substance listed; conditions: 101 kPa, Liquid, Chromatography, x1 = 0
Structure (SMILES),activity coefficient ([2]; 323.15 K),activity coefficient ([2]; 353.15 K),activity coefficient ([2]; 373.15 K),activity coefficient ([2]; 333.15 K),activity coefficient ([2]; 343.15 K),also measured
CC1(C)[C@@H]2CC[C@@]1(CS(=O)(=O)[O-])C(=O)C2.CCCCCCCCCCCCCC[N+](CCCCCC)(CCCCCC)CCCCCC,,,,,,mass density ([1]; 298.55 K): 963.8 ± 0.3 kg/m3; mass density ([1]; 313.45 K): 953.4 ± 0.3 kg/m3; mass density ([1]; 323.45 K): 946.1 ± 0.3 kg/m3; mass density ([1]; 333.25 K): 939.1 ± 0.3 kg/m3
"CCCCCCCCCCCCCC[N+](CCCCCC)(CCCCCC)CCCCCC.C[C@H](O)C(=O)[O-] [N,N,N-trihexyl-1-tetradecanaminium (2S)-2-hydroxypropanoate]",,,,,,mass density ([1]; 298.55 K): 894.8 ± 0.3 kg/m3; mass density ([1]; 313.45 K): 885.7 ± 0.3 kg/m3; mass density ([1]; 323.45 K): 879.9 ± 0.3 kg/m3; mass density ([1]; 333.25 K): 874.5 ± 0.3 kg/m3
CO [methanol] + CCCCCCCCCCCCCC[N+](CCCCCC)(CCCCCC)CCCCCC.C[C@H](O)C(=O)[O-],0.03,0.03,0.03,,,
CC1CCCCC1 [methylcyclohexane] + CC1(C)[C@@H]2CC[C@@]1(CS(=O)(=O)[O-])C(=O)C2.CCCCCCCCCCCCCC[N+](CCCCCC)(CCCCCC)CCCCCC,0.75 ± 0.05,,,1,1.33 ± 0.09,
CC1CCCCC1 [methylcyclohexane] + CCCCCCCCCCCCCC[N+](CCCCCC)(CCCCCC)CCCCCC.C[C@H](O)C(=O)[O-],0.86 ± 0.06,0.82 ± 0.05,0.81 ± 0.05,,,
CC1CCCC1 [methylcyclopentane] + CC1(C)[C@@H]2CC[C@@]1(CS(=O)(=O)[O-])C(=O)C2.CCCCCCCCCCCCCC[N+](CCCCCC)(CCCCCC)CCCCCC,0.75 ± 0.05,,,1,1.33 ± 0.09,
CC1CCCC1 [methylcyclopentane] + CCCCCCCCCCCCCC[N+](CCCCCC)(CCCCCC)CCCCCC.C[C@H](O)C(=O)[O-],0.82 ± 0.05,0.78 ± 0.05,0.77 ± 0.05,,,
C[N+](=O)[O-] [nitromethane] + CC1(C)[C@@H]2CC[C@@]1(CS(=O)(=O)[O-])C(=O)C2.CCCCCCCCCCCCCC[N+](CCCCCC)(CCCCCC)CCCCCC,0.34 ± 0.03,,,0.5 ± 0.1,0.7 ± 0.1,
C[N+](=O)[O-] [nitromethane] + CCCCCCCCCCCCCC[N+](CCCCCC)(CCCCCC)CCCCCC.C[C@H](O)C(=O)[O-],0.32 ± 0.03,0.31 ± 0.03,0.31 ± 0.03,,,
CCCCCCCCC [nonane] + CC1(C)[C@@H]2CC[C@@]1(CS(=O)(=O)[O-])C(=O)C2.CCCCCCCCCCCCCC[N+](CCCCCC)(CCCCCC)CCCCCC,1.5 ± 0.1,,,2.26 ± 0.15,3.24 ± 0.22,
CCCCCCCCC [nonane] + CCCCCCCCCCCCCC[N+](CCCCCC)(CCCCCC)CCCCCC.C[C@H](O)C(=O)[O-],1.67 ± 0.11,1.59 ± 0.11,1.51 ± 0.1,,,
CCCCCCCC [octane] + CC1(C)[C@@H]2CC[C@@]1(CS(=O)(=O)[O-])C(=O)C2.CCCCCCCCCCCCCC[N+](CCCCCC)(CCCCCC)CCCCCC,1.24 ± 0.08,,,1.81 ± 0.12,2.53 ± 0.17,
CCCCCCCC [octane] + CCCCCCCCCCCCCC[N+](CCCCCC)(CCCCCC)CCCCCC.C[C@H](O)C(=O)[O-],1.37 ± 0.09,1.31 ± 0.09,1.29 ± 0.08,,,
CCCC(C)=O [pentan-2-one] + CC1(C)[C@@H]2CC[C@@]1(CS(=O)(=O)[O-])C(=O)C2.CCCCCCCCCCCCCC[N+](CCCCCC)(CCCCCC)CCCCCC,0.52 ± 0.04,,,0.78 ± 0.05,1.07 ± 0.07,
CCCC(C)=O [pentan-2-one] + CCCCCCCCCCCCCC[N+](CCCCCC)(CCCCCC)CCCCCC.C[C@H](O)C(=O)[O-],0.6 ± 0.1,0.59 ± 0.04,0.59 ± 0.04,,,
CCC(=O)CC [pentan-3-one] + CC1(C)[C@@H]2CC[C@@]1(CS(=O)(=O)[O-])C(=O)C2.CCCCCCCCCCCCCC[N+](CCCCCC)(CCCCCC)CCCCCC,0.47 ± 0.04,,,0.71 ± 0.05,1.03 ± 0.06,

Structure (SMILES),activity coefficient ([2]; 323.15 K),activity coefficient ([2]; 353.15 K),activity coefficient ([2]; 373.15 K),activity coefficient ([2]; 333.15 K),activity coefficient ([2]; 343.15 K),also measured
CCC(=O)CC [pentan-3-one] + CCCCCCCCCCCCCC[N+](CCCCCC)(CCCCCC)CCCCCC.C[C@H](O)C(=O)[O-],0.55 ± 0.04,0.55 ± 0.04,0.57 ± 0.04,,,
CCCO [propan-1-ol] + CC1(C)[C@@H]2CC[C@@]1(CS(=O)(=O)[O-])C(=O)C2.CCCCCCCCCCCCCC[N+](CCCCCC)(CCCCCC)CCCCCC,0.09 ± 0.03,,,0.16 ± 0.03,0.26 ± 0.03,
CC(C)O [propan-2-ol] + CC1(C)[C@@H]2CC[C@@]1(CS(=O)(=O)[O-])C(=O)C2.CCCCCCCCCCCCCC[N+](CCCCCC)(CCCCCC)CCCCCC,0.12 ± 0.03,,,0.2,0.32 ± 0.03,
c1ccncc1 [pyridine] + CC1(C)[C@@H]2CC[C@@]1(CS(=O)(=O)[O-])C(=O)C2.CCCCCCCCCCCCCC[N+](CCCCCC)(CCCCCC)CCCCCC,0.32 ± 0.03,,,0.49 ± 0.04,0.68 ± 0.05,
c1ccncc1 [pyridine] + CCCCCCCCCCCCCC[N+](CCCCCC)(CCCCCC)CCCCCC.C[C@H](O)C(=O)[O-],0.34 ± 0.03,0.34 ± 0.03,0.34 ± 0.03,,,
ClC(Cl)(Cl)Cl [tetrachloromethane] + CC1(C)[C@@H]2CC[C@@]1(CS(=O)(=O)[O-])C(=O)C2.CCCCCCCCCCCCCC[N+](CCCCCC)(CCCCCC)CCCCCC,0.35 ± 0.03,,,0.51 ± 0.04,0.75 ± 0.05,
ClC(Cl)(Cl)Cl [tetrachloromethane] + CCCCCCCCCCCCCC[N+](CCCCCC)(CCCCCC)CCCCCC.C[C@H](O)C(=O)[O-],0.24 ± 0.03,0.26 ± 0.03,0.29 ± 0.03,,,
c1ccsc1 [thiophene] + CC1(C)[C@@H]2CC[C@@]1(CS(=O)(=O)[O-])C(=O)C2.CCCCCCCCCCCCCC[N+](CCCCCC)(CCCCCC)CCCCCC,0.28 ± 0.03,,,0.42 ± 0.04,0.56 ± 0.04,
c1ccsc1 [thiophene] + CCCCCCCCCCCCCC[N+](CCCCCC)(CCCCCC)CCCCCC.C[C@H](O)C(=O)[O-],0.28 ± 0.03,0.29 ± 0.03,0.3 ± 0.1,,,
Cc1ccccc1 [toluene] + CC1(C)[C@@H]2CC[C@@]1(CS(=O)(=O)[O-])C(=O)C2.CCCCCCCCCCCCCC[N+](CCCCCC)(CCCCCC)CCCCCC,0.41 ± 0.03,,,0.63 ± 0.04,0.88 ± 0.06,
Cc1ccccc1 [toluene] + CCCCCCCCCCCCCC[N+](CCCCCC)(CCCCCC)CCCCCC.C[C@H](O)C(=O)[O-],0.46 ± 0.04,0.46 ± 0.04,0.48 ± 0.04,,,
ClC(Cl)Cl [trichloromethane] + CC1(C)[C@@H]2CC[C@@]1(CS(=O)(=O)[O-])C(=O)C2.CCCCCCCCCCCCCC[N+](CCCCCC)(CCCCCC)CCCCCC,0.05,,,0.09 ± 0.03,0.15 ± 0.03,
ClC(Cl)Cl [trichloromethane] + CCCCCCCCCCCCCC[N+](CCCCCC)(CCCCCC)CCCCCC.C[C@H](O)C(=O)[O-],0.05,0.04,0.03,,,
CCN(CC)CC [triethylamine] + CC1(C)[C@@H]2CC[C@@]1(CS(=O)(=O)[O-])C(=O)C2.CCCCCCCCCCCCCC[N+](CCCCCC)(CCCCCC)CCCCCC,0.84 ± 0.05,,,1.23 ± 0.08,1.55 ± 0.1,
CCCCCCCCCCC [undecane] + CC1(C)[C@@H]2CC[C@@]1(CS(=O)(=O)[O-])C(=O)C2.CCCCCCCCCCCCCC[N+](CCCCCC)(CCCCCC)CCCCCC,1.62 ± 0.11,,,2.84 ± 0.19,4.32 ± 0.29,
CCCCCCCCCCC [undecane] + CCCCCCCCCCCCCC[N+](CCCCCC)(CCCCCC)CCCCCC.C[C@H](O)C(=O)[O-],1.67 ± 0.11,1.81 ± 0.12,1.75 ± 0.12,,,
